In paper PMC11855212 (2025):

What was measured:
[1] = system: RB IM (RB promoter i-motif) (DNA, i motif) GCCGCCCAAAACCCCCCG; experiment: SPR; conditions: 100 mM K+; 20 mM MES, pH 5.5, 25 °C
[2] = system: RB IM, 5'-biotin (SPR) (DNA, i motif) GCCGCCCAAAACCCCCCG; experiment: SPR; conditions: 100 mM K+, 20 mM MES, pH 5.5, 25 °C
[3] = system: hairpin (DNA, hairpin) CGCGCGCGTTTTCGCGCGCG; experiment: SPR; conditions: buffer for hairpin not stated
[4] = system: RB promoter i-motif, 5'-FAM (DNA, i motif) GCCGCCCAAAACCCCCCG; experiment: MST; conditions: 100 mM K+; 20 mM MES, pH 5.5, 25 °C
[5] = system: RB G4 (RB promoter G-quadruplex) (DNA, G4) CGGGGGGTTTTGGGCGGC; experiment: CD melting; conditions: 100 mM K+; 50 mM Tris-HCl, pH 7.4; 2 μM DNA; compound concentration not in material
[6] = system: RB promoter G-quadruplex, 5'-FAM (DNA, G4) CGGGGGGTTTTGGGCGGC; experiment: MST; conditions: 100 mM K+; 50 mM Tris-HCl, pH 7.4, 25 °C
[7] = system: kras G4 (DNA, G4) AGGGCGGTGTGGGAAGAGGGAAGAGGGGGAGG; experiment: SPR; conditions: 100 mM K+; 50 mM Tris-HCl, pH 7.4, 25 °C
[8] = system: ACC2 G4 (DNA, G4) GGGGCGGGGCGGGGGCGGG; experiment: SPR; conditions: 100 mM K+; 50 mM Tris-HCl, pH 7.4, 25 °C
[9] = system: c-jun IM (DNA, i motif) TAACCCCCTCCCCCTCCCCCCTTTAAT; experiment: SPR; conditions: 100 mM K+; 20 mM MES, pH 5.5, 25 °C
[10] = system: c-jun G4 (DNA, G4) AAGGGGGGAGGGGGAGGGGGTT; experiment: SPR; conditions: 100 mM K+; 50 mM Tris-HCl, pH 7.4, 25 °C
[11] = system: RB IM (RB promoter i-motif) (DNA, i motif) GCCGCCCAAAACCCCCCG; experiment: TO displacement fluorescence; conditions: 100 mM K+; BPES buffer, pH 5.5, 25 °C; 1 μM DNA; thiazole orange (TO) displaced
[12] = system: RET G4 (DNA, G4) GGGGCGGGGCGGGGGGGGG; experiment: SPR; conditions: 100 mM K+; 50 mM Tris-HCl, pH 7.4, 25 °C
[13] = system: ACC2 IM (DNA, i motif) TGACCCGCCCCCGCCCCGCCCCTGT; experiment: SPR; conditions: 100 mM K+; 20 mM MES, pH 5.5, 25 °C
[14] = system: hairpin (DNA, hairpin) CGCGCGCGTTTTCGCGCGCG; experiment: SPR; conditions: 25 °C; highest concentration not stated
[15] = system: RB G4 (RB promoter G-quadruplex) (DNA, G4) CGGGGGGTTTTGGGCGGC; experiment: TO displacement fluorescence; conditions: 100 mM K+; 50 mM Tris-HCl, pH 7.4, 25 °C; 1 μM DNA; thiazole orange (TO) displaced
[16] = system: RB IM (RB promoter i-motif) (DNA, i motif) GCCGCCCAAAACCCCCCG; experiment: CD melting; conditions: 100 mM K+; BPES buffer (pH 5.5 per i-motif experiments); 2 μM DNA; compound concentration not in material

| SMILES | KD [1] [µM] | KD ([2]; unit not printed in Table S2, μM in text) [µM] | KD [3] [µM] | KD [4] [µM] | KD ([2]; Table S2 prints 9.24) [µM] | ΔTm [5] [°C] | KD [6] [µM] | KD [7] [µM] | KD [8] [µM] | KD [9] [µM] | KD [10] [µM] | DC50 [11] [µM] | KD [12] [µM] | KD [13] [µM] | KD [14] [µM] | DC50 [15] [µM] | ΔTm [16] [°C] |
| --- | --- | --- | --- | --- | --- | --- | --- | --- | --- | --- | --- | --- | --- | --- | --- | --- | --- |
| C[n+]1c(/C=C/c2c3ccccc3cc3ccccc23)ccc2ccccc21 | 36.7 | 36.7 | – | – | – | – | – | – | – | – | – | – | – | – | – | – | – |
| Cc1ccc2nc3ccccc3c(NCCNCCNc3c4ccccc4nc4ccc(C)cc34)c2c1 | – | – | > 50 | 18.06 ± 5.28 | 13.6 | −9.9 | 0.50 ± 0.27 | – | – | – | – | – | – | – | – | – | – |
| CN(CCCNc1c2ccccc2nc2ccccc12)CCCNc1c2ccccc2nc2ccccc12 | 2.44 | – | – | 0.43 ± 0.24 | – | −6.4 | 2.50 ± 0.65 | 32.5 | 53.1 | 27.0 | 43.9 | 3.4 | 30.9 | 41.7 | > 50 | 2.7 | −10.7 |
